{"source": "patent US4707498A", "about": "“Fluorinated diaminoalkyne derivatives” (Merrell Dow Pharmaceuticals Inc., priority 1986, dated 1987)", "origin": "cited, not measured here", "tested_on": "tumor", "settings": "MGBG intravenously once or twice week"}
{"compound": "CC(C=NNC(=N)N)=NNC(=N)N", "note": "[MGBG, methylglyoxal bis(guanylhydrazone)]", "values": [{"measurement": "complete disappearance of the disease (number of treated patients)", "setting": "65 treated patients", "result": "two of the 65"}, {"measurement": "regression of the tumor", "setting": "patients in advanced stages of carcinoma, lymphoma, hepatoma, melanoma, leukemia or sarcoma", "result": "measurable regression of the tumor in many of the patients treated"}]}
